Laboratory results: patent US20250179022A1, “COMPOUND USED AS TYK2 INHIBITOR, PREPARATION METHOD THEREFOR, AND PHARMACEUTICAL USE THEREOF” (SHANGHAI ZHIGEN PHARMACEUTICAL & TECHNOLOGY CO. LTD., priority 2022, published 2025)
Converted amounts (≈) assume the structure as drawn. Like-named read-outs stand apart in the source and are kept apart here. Blank lines part the entries; values can stand above or below the molecule they belong to.

Assays:
[1] = system: IFN-α-induced STAT phosphorylation; experiment: IFN-α-induced STAT phosphorylation in human whole blood; assay type: cell-based; conditions: human whole blood, 20 ng/ml IFN-α, pSTAT5 in CD3-positive cells; read-out: IC50, IFN-α inflammatory pathway (IFN-α-induced STAT phosphorylation)
From the text: The cytokine receptor attached to TYK2 mediates the signaling of type 1 interferon (IFN-α), which has been identified as the most important inflammatory factor of the autoimmune system. Human whole blood is induced with IFN-α, and TYK2 from lymphocytes in whole blood triggered STAT phosphorylation, which mediated subsequent inflammatory signaling. Therefore, TYK2 inhibitors have an inhibitory effect on IFN-α signaling, and the stronger the TYK2 inhibitory activity, the lower the level of STAT phosphorylation, and the stronger the corresponding anti-inflammatory effect.
In this experiment, the ability of the compounds to inhibit IFN-α-induced STAT phosphorylation in human whole blood were tested, and the IC50 values were calculated. The anti-inflammatory activity of the compounds was evaluated at the tissue level and evaluation of the inhibitory activity of compounds on the IFN-α inflammatory pathway based on the IC50 value.
The tested compound, powder and stored at room temperature, prepared into 10 mM stock solution with DMSO and stored at −80° C. in the refrigerator.
1× Fix/Lysis solution preparation: 5× Fix/Lysis and ddH2O were diluted according to 1:4 and preheated in 37° C. incubator, waiting for use.
Flow cytometric staining buffer preparation: 1 g of bovine serum albumin (BSA) and 1 mL of EDTA (0.5 M) solution were added to 500 mL of phosphate buffer solution (PBS) and stored at 4° C. in the refrigerator.
Compound dilution solution: 0.5 g of bovine serum albumin (BSA) was added to 500 mL of phosphate buffer solution (PBS), and stored at 4° C. in the refrigerator.
50 μg/mL IFN-alpha was diluted to 400 ng/mL with Compound Diluent and set aside.
67.5 μL of human whole blood was added to a 96-well plate using a 300 μL electric volley gun. 3.5 μL of prepared test compound was added, mixed well and placed in the cell culture incubator. After 60 min incubation, 400 ng/mL IFN-α (Biolegend 592702, final concentration 20 ng/ml) was added. The obtained was mixed well and placed in the cell culture incubator to continue incubation for 15 min.
After cytokine stimulation, 5 ul of PE-CD3 (BD 555333) antibody was added to each well, mixed and incubation was continued at 4° C. in the refrigerator. At the end, whole blood was transferred to a 96-well deep-well plate using a volley gun, pre-warmed 1× Fix/Lysis solution was added, and cells were lysed and fixed for 12 minutes at 37° C. in an incubator. After being washed, 400 μL of Perm III solution was added, vortexed and incubated on ice for 30 minutes. Cells were then stained by 100 μL of APC-pSTAT5 (1:100) antibody for 50 min at room temperature. This was followed by flow-through instrumentation. The expression of pSTAT5 was quantified by median fluorescence intensity after gating the CD3-positive signaling cluster.

[2] = dogs, 2 mg/kg, literature values; cited from earlier work
JAK3 = target: T1, JAK3 (Homo sapiens, UniProt P52333, cells depend on it, form not given); experiment: JAK family kinase selectivity assay, Ba/F3-TEL-JAK3 cell proliferation; assay type: cell-based; conditions: read-out: Ba/F3 Cell IC50 JAK3; Ba/F3-TEL-JAK3, 72 h
T1 construct: fused on or other part: N-terminal part of TEL (ETV6) as oligomerising partner; P41212 (Transcription factor ETV6)
From the text: (§1) There are four kinases in the JAK family, respectively TYK2, JAK1, JAK2 and JAK3. JAK family kinase genes were introduced into the wild-type murine B lymphocytes (BaF3), and four BaF3 engineered cell lines were constructed respectively (Ba/F3-FL-TYK2-E957D, Ba/F3-TEL-JAK1, Ba/F3-TEL-JAK2, Ba/F3-TEL-JAK3). The growth and proliferation of these engineered cell lines were not dependent on IL-3, but on exogenously transferred JAK family kinases.
(§2) In this experiment, the inhibitory effects of the compounds on the proliferation of four cell types, Ba/F3-FL-TYK2-E957D, Ba/F3-TEL-JAK1, Ba/F3-TEL-JAK2, and Ba/F3-TEL-JAK3 were tested, and apoptosis was detected, and the IC50 values were calculated. The inhibitory activities of the compounds against TYK2, JAK1, JAK2, and JAK3 kinases were evaluated based on the IC50 value, thus assessing the JAK family kinase selectivity of the compounds.
(§3) The tested compounds, powder and stored at room temperature, were prepared into 10 mM stock solution with DMSO and stored at −20° C. away from light for use.
(§4) Compounds were formulated into dilute solutions which was 1000 times of the final concentration. The compound was prepared into 20-times of final concentration by diluting the compound with culture medium. 2 ul of 1000-times compound was added per well to 98 ul of culture medium.
(§5) Cells (provided by Sundia Pharmaceutical Technology (Shanghai) Co., Ltd.) were resuspended and counted using an automated cell counter. The cell suspension was diluted to the desired density based on BaF3 seeding density of 2000 cells per well. Each well was plated with 95 ul of cells and incubated at 37° C. for stable equilibrium. […]
(§6) The cell plate was equilibrated to room temperature. […] Detected with SpectraMax Paradigm.
(§7) • (1) IC50 was calculated using GraphPad Prism 5. • (2) % Inh=(Max signal-Compound signal)/(Max signal-Min signal)×100. • (3) Max signal was the positive control well with only the same volume of DMSO as the compound. • (4) Min signal was the negative control well with only the culture medium.

[3] = Solubility in water (at pH=7); assay type: physicochemical
From the text: Test Example 6: Solubility of the Compounds of the Invention in Water (at pH=7)

JAK2 = target: T2, JAK2 (Homo sapiens, UniProt O60674, cells depend on it, form not given); experiment: JAK family kinase selectivity assay, Ba/F3-TEL-JAK2 cell proliferation; assay type: cell-based; conditions: read-out: Ba/F3 Cell IC50 JAK2; Ba/F3-TEL-JAK2, 72 h
T2 construct: fused on or other part: N-terminal part of TEL (ETV6) as oligomerising partner; it is the second protein of the fusion and part of the key; P41212 (Transcription factor ETV6)
From the text: as §1, §2, §3, §4, §5, §6, §7

[4] = In vivo pharmacokinetic experiment in rats (oral); design: species or system SD rats; conditions: 5 mg/kg
Protocol: Experimental method: Healthy male SD rats were randomly grouped into 3 rats in each group and given the test compound orally. The rats were fasted for 12 h before the gavage experiment, and drank water freely, and were fed uniformly for 4 h after the administration of the compounds. Before (0 h) and 0.25, 0.5, 1.0, 2.0, 4.0, 6.0, 8.0 and 24 h after the administration of the test compounds, 0.2 mL of blood was collected from the jugular vein at the above set time points and placed in EDTA-K2 tubes, and the whole blood was collected and stored temporarily in an ice-water bath, and then centrifuged at 11,000 rpm for 5 min within 30 min, the plasma was separated, and frozen at −70° C. in a refrigerator for testing.

TYK2 = target: T3, TYK2 (Homo sapiens, UniProt P29597, E957D); experiment: TYK2 kinase activity inhibition assay (Ba/F3-FL-TYK2-E957D cell proliferation, CellTiter-Glo); assay type: cell-based; conditions: 72 h
T3 construct: host or cells: Ba/F3 (murine B lymphocytes)
Protocol: The TYK2 kinase gene was introduced into wild-type murine-derived B lymphocytes (BaF3) to construct the Ba/F3-FL-TYK2-E957D stable cell line.
In this experiment, the inhibitory effect of the compounds on the proliferation of Ba/F3-FL-TYK2-E957D cells were tested, apoptosis was detected, and the IC50 value was calculated. The inhibitory activity of the compounds against TYK2 kinase was evaluated based on the IC50 value.
as §3
Compounds were prepared into dilute solutions which was 1000 times of the final concentration. The compound was prepared into 20-times of the final concentration by diluting the compound with culture medium. 2 ul of 1000-times compound was added to per well to 98 ul of culture medium.
Cells (provided by Sundia Pharmaceutical Technology (Shanghai) Co., Ltd.) were resuspended and counted using an automated cell counter. The cell suspension was diluted to the desired density based on BaF3 seeding density of 2000 cells per well. Each well was plated with 95 ul of cells and incubated at 37° C. for stable equilibrium. 5 ul of 20-times compound was added to each well, with the wells to which the same volume of DMSO was added as a control.
The cell plate was equilibrated to room temperature. 40 ul CellTiter-Glo® Reagent was added to each well, shaken for 2 minutes and allowed to stand for 10 minutes. Detected with SpectraMax Paradigm.
• (1) IC50 was calculated using GraphPad Prism 5. • (2) % Inh=(Max signal−Compound signal)/(Max signal−Min signal)×100. • (3) Max signal was the positive control well with only the same volume of DMSO as the compound. • (4) Min signal was the negative control well with only the culture medium.

T3 sequence (P29597 whole entry E957D): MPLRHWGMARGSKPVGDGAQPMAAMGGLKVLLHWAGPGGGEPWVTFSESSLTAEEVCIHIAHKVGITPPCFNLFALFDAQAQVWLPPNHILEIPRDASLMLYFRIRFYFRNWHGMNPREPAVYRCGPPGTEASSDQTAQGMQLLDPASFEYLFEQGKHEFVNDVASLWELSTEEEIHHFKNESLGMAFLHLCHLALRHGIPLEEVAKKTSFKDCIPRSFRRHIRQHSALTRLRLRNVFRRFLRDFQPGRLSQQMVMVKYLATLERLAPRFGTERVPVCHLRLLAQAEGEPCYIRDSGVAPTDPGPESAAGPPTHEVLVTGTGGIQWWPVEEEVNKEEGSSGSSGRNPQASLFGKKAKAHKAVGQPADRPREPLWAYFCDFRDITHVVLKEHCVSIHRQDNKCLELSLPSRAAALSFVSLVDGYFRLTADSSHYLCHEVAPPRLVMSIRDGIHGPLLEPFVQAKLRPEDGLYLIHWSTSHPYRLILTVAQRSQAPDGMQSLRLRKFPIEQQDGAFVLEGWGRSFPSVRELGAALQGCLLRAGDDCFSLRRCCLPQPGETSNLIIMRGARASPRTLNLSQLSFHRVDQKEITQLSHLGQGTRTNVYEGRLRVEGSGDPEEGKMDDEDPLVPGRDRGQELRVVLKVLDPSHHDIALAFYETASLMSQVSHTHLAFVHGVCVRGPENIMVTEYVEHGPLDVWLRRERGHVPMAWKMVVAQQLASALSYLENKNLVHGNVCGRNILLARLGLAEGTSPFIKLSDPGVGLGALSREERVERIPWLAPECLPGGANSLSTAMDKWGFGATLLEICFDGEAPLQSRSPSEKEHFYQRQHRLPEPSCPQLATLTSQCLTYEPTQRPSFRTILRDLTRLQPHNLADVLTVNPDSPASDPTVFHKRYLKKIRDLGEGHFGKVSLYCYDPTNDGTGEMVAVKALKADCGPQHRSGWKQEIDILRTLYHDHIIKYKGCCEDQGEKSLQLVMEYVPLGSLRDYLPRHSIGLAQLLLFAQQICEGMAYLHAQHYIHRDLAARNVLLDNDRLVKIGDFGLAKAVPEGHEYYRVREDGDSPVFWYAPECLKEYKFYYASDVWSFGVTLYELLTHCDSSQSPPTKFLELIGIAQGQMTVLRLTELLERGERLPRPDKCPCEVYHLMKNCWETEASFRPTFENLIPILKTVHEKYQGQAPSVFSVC
T1 sequence (P52333 822-1111 limits assumed, change not shown): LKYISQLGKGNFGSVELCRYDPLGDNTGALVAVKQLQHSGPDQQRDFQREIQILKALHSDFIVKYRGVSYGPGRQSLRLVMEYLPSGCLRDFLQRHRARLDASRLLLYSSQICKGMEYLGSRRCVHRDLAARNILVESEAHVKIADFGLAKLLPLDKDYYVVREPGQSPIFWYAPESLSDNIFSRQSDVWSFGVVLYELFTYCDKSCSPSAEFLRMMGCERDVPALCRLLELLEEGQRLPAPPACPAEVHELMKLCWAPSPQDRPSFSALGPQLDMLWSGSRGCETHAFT
T2 sequence (O60674 849-1132 limits assumed, change not shown): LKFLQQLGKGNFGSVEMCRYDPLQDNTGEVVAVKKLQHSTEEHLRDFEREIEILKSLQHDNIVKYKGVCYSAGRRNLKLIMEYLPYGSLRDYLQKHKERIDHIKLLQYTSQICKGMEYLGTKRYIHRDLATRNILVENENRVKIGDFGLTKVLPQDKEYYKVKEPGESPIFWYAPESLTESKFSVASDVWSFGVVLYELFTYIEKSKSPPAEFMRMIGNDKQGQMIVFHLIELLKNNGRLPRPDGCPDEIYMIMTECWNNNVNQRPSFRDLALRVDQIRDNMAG

Structure (SMILES): [2H]C([2H])([2H])NC(=O)c1nnc(NC(=O)C2CC2)cc1Nc1cccc(-c2ncn(C)n2)c1OC [BMS-986165, Deucravacitinib, reference compound]
- IC50 [1]: 0.0232 µM
- AUC [2]: 1312 ngh/mL
- Cmax [2]: 222 ng/mL
- F [2]: 35.5%
- T1/2 [2]: 6.21 h
- GI50 (JAK3): > 1 µM
- Solubility ([3]; pH 7, water, read-out: Solubility): 8.2 µg/mL (≈ 19.3 µM)
- GI50 (JAK2): > 1 µM
- AUC [4]: 2804 ngh/mL
- F [4]: 28.5%
- Cmax ([4]; male, SD, rat, plasma): 229 ng/mL
- MRT ([4]; male, SD, rat, plasma): 6.43 h
- half-life ([4]; male, SD, rat, plasma): 3.68 h

- IC50 [1]: 0.0221 µM
Structure (SMILES): CN=S(C)(=O)c1ccc(N)nc1Nc1cc(NC(=O)C2CC2)nnc1C(=O)NC (stereo not drawn) [Example 7, 4-((6-amino-3-(N,S-dimethylsulfoximino)pyridin-2-yl)amino)-6-(cyclopropylcarboxamido)-N-methylpyridazine-3-carboxamide]

- IC50 [1]: 0.018 µM
Structure (SMILES): CN=S(C)(=O)c1cc(C)cnc1Nc1cc(NC(=O)C2CC2)nnc1C(=O)NC (stereo not drawn) [Example 15, 6-(cyclopropylcarboxamido)-4-((3-(N,S-dimethylsulfoximino)-5-methylpyridin-2-yl)amino)-N-methylpyridazine-3-carboxamide]

- IC50 [1]: 0.013 µM
Structure (SMILES): CN=S(C)(=O)c1cc(F)c(N)nc1Nc1cc(NC(=O)C2CC2)nnc1C(=O)NC (stereo not drawn) [Example 22, 4-((6-amino-3-(N,S-dimethylsulfoximino)-5-fluoropyridin-2-yl)amino)-6-(cyclopropylcarboxamido)-N-methylpyridazine-3-carboxamide]

- IC50 [1]: 0.0081 µM
- IC50 (TYK2): 0.002 µM
Structure (SMILES): CN=S(C)(=O)c1cc(Cl)c(N)nc1Nc1cc(NC(=O)C2CC2)nnc1C(=O)NC (stereo not drawn) [Example 23]

- IC50 [1]: 0.0075 µM
- IC50 (TYK2): 0.0013 µM
Structure (SMILES): CN=S(C)(=O)c1cc(Br)c(N)nc1Nc1cc(NC(=O)C2CC2)nnc1C(=O)NC (stereo not drawn) [Example 24, 4-((6-amino-5-bromo-3-(N,S-dimethylsulfoximino)pyridin-2-yl)amino)-6-(cyclopropylcarboxamido)-N-methylpyridazine-3-carboxamide]

- IC50 [1]: 0.0094 µM
Structure (SMILES): CN=S(C)(=O)c1cc(C)c(N)nc1Nc1cc(NC(=O)C2CC2)nnc1C(=O)NC (stereo not drawn) [Example 26, 4-((6-amino-3-(N,S-dimethylsulfoximino)-5-methylpyridin-2-yl)amino)-6-(cyclopropylcarboxamido)-N-methylpyridazine-3-carboxamide]

- IC50 [1]: 0.0161 µM
- IC50 (TYK2): 0.00062 µM
Structure (SMILES): CN=S(C)(=O)c1cc2c(Cl)c[nH]c2nc1Nc1cc(NC(=O)C2CC2)nnc1C(=O)NC (stereo not drawn) [Example 32, 4-((3-chloro-5-(N,S-dimethylsulfoximino)-1H-pyrrolo[2,3-b]pyridin-6-yl)amino)-6-(cyclopropylamido)-N-methylpyridazine-3-carboxamide]

- Solubility [3]: 47 µg/mL (≈ 103 µM)
Structure (SMILES): [2H]C([2H])([2H])NC(=O)c1nnc(NC(=O)C2CC2)cc1Nc1nc(N)c(Cl)cc1[S@@](C)(=O)=NC [Example 38]
